What was measured:
[1] = biological target: T1, RBA1 (rice bran lectin 1) (Oryza sativa, UniProt Q0JF21); experiment: hemagglutination inhibition (rabbit erythrocytes); assay type: biochemical; settings: pH 7.5, room temperature, 2-fold serial dilution
T1 construct: gene Os04g0173800; disulfide-linked heterodimer of 20- and 12-kDa subunits, 32-33 kDa
T1 sequence (Q0JF21 29-122): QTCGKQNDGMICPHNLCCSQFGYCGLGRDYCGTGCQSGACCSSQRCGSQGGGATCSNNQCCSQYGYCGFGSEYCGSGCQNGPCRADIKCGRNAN
T1 sequence (Q0JF21 123-201): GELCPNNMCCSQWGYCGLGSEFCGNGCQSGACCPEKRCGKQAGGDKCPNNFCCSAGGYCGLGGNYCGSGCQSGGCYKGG
Source text: hemagglutination inhibition (rabbit erythrocytes) on RBA1 (rice bran lectin 1)

[2] = biological target: T2, RBA2 (rice bran lectin 2) (Oryza sativa, UniProt Q0JF21); experiment: hemagglutination inhibition (rabbit erythrocytes); assay type: biochemical; settings: pH 7.5, room temperature, 2-fold serial dilution
T2 construct: gene Os04g0173800; noncovalent homodimer of 12-kDa subunits, 25 kDa
T2 sequence (Q0JF21 123-201): T1 sequence (Q0JF21 123-201)
Source text: hemagglutination inhibition (rabbit erythrocytes) on RBA2 (rice bran lectin 2)

[3] = biological target: T3, bovine serum albumin (BSA) (Bos taurus, UniProt P02769); experiment: frontal affinity chromatography, immobilised protein; assay type: binding; settings: pH 7.3, 25 °C, EDTA-PB
T3 construct: gene ALB
T3 sequence (P02769 25-607): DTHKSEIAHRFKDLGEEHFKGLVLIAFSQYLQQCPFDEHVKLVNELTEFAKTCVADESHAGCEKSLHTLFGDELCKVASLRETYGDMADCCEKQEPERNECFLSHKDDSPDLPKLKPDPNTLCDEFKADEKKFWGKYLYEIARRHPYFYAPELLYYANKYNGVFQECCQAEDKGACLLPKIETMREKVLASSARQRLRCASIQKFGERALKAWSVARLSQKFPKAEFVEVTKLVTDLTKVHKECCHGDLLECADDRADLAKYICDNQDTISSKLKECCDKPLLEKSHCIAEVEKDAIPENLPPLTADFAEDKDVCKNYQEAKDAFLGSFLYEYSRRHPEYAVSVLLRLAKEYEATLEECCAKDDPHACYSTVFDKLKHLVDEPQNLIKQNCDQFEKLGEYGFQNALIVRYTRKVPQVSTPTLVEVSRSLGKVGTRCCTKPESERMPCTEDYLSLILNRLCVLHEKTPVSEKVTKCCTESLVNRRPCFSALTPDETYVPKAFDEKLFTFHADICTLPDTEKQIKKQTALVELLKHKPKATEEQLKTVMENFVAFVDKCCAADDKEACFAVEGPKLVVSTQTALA

Structure (SMILES) | RBA1 [1] [mM] | RBA2 [2] [mM] | hemagglutination inhibition concentration [2] [mM] | V - V0 [3]
N[C@H]1[C@H](O[C@H]2[C@H](O)[C@@H](N)C(O)O[C@@H]2CO)O[C@H](CO)[C@@H](O)[C@@H]1O (stereo partly shown) [Chitobiose] | 100 |  |  | 
CC(=O)N[C@H]1C(O)O[C@H](CO)[C@H](O)[C@@H]1O (stereo partly drawn) [N-Acetyl D-galactosamine] |  | 50 |  | 
CC(=O)N[C@H]1[C@H](O[C@H]2[C@H](O)[C@@H](NC(C)=O)C(O)O[C@@H]2CO)O[C@H](CO)[C@@H](O[C@@H]2O[C@H](CO)[C@@H](O[C@@H]3O[C@H](CO)[C@@H](O)[C@H](O)[C@H]3NC(C)=O)[C@H](O)[C@H]2NC(C)=O)[C@@H]1O (stereo partly shown) [Tetra-N-acetylchitotetraose] | 0.04 |  | 0.04 | 
CC(=O)N[C@H]1[C@H](O[C@H]2[C@H](O)[C@@H](NC(C)=O)C(O)O[C@@H]2CO)O[C@H](CO)[C@@H](O[C@@H]2O[C@H](CO)[C@@H](O)[C@H](O)[C@H]2NC(C)=O)[C@@H]1O (stereo partly shown) [Tri-N-acetylchitotriose] | 0.09 | 0.39 |  | 
COC(=O)c1ccccc1-c1c2ccc(=N)cc-2oc2cc(N)ccc12 [Rhodamine 123] |  |  |  | BSA showed a similar interaction with RH.
CC(=O)N[C@H]1[C@H](O[C@H]2[C@H](O)[C@@H](NC(C)=O)C(O)O[C@@H]2CO)O[C@H](CO)[C@@H](O)[C@@H]1O (stereo partly shown) [Di-N-acetylchitobiose] | 0.78 | 6.25 |  | 
CC(=O)N[C@H]1[C@H](O[C@H]2[C@H](O)[C@@H](NC(C)=O)[C@H](O[C@H]3[C@H](O)[C@@H](NC(C)=O)C(O)O[C@@H]3CO)O[C@@H]2CO)O[C@H](CO)[C@@H](O[C@@H]2O[C@H](CO)[C@@H](O[C@@H]3O[C@H](CO)[C@@H](O[C@@H]4O[C@H](CO)[C@@H](O)[C@H](O)[C@H]4NC(C)=O)[C@H](O)[C@H]3NC(C)=O)[C@H](O)[C@H]2NC(C)=O)[C@@H]1O (stereo partly shown) [Hexa-N-acetylchitohexaose] | 0.04 |  | 0.04 | 
CC(=O)N[C@H]1[C@H](O[C@H]2[C@H](O)[C@@H](NC(C)=O)[C@H](O[C@H]3[C@H](O)[C@@H](NC(C)=O)C(O)O[C@@H]3CO)O[C@@H]2CO)O[C@H](CO)[C@@H](O[C@@H]2O[C@H](CO)[C@@H](O[C@@H]3O[C@H](CO)[C@@H](O)[C@H](O)[C@H]3NC(C)=O)[C@H](O)[C@H]2NC(C)=O)[C@@H]1O (stereo partly shown) [Penta-N-acetylchitopentaose] | 0.02 | 0.04 |  | 
N[C@H]1C(O)O[C@H](CO)[C@@H](O)[C@@H]1O (stereo partly drawn) [D-Glucosamine] | > 200 | 3.1 |  | 
CC(=O)N[C@H]1C(O)O[C@H](CO)[C@@H](O)[C@@H]1O (stereo partly drawn) [N-Acetyl D-glucosamine] | 25 | 50 |  | 
N[C@H]1C(O)O[C@H](CO)[C@H](O)[C@@H]1O (stereo partly drawn) [D-Galactosamine] | > 200 | 0.8 |  | 

From publication PMC5454964, “Isolation of Rice Bran Lectins and Characterization of Their Unique Behavior in Caco-2 Cells” (International Journal of Molecular Sciences, 2017)
